Reference: PMC11360180, “Enhancement of Antimicrobial Function by L/D-Lysine Substitution on a Novel Broad-Spectrum Antimicrobial Peptide, Phylloseptin-TO2: A Structure-Related Activity Research Study” (Pharmaceutics, 2024)
Where a SMILES comes first, the peptide text is derived from it. Where no end group is shown, it is not given here. [ ]: non-standard residue; d: D form.

What was measured:
MRSA (NCTC 12493) = type: cell-based, methicillin-resistant Staphylococcus aureus; settings: NCTC 12493, 24 h
Description: (§1) Seven microorganism strains were used to preliminarily evaluate the antimicrobial activity of PSTO2 and its analogues, including Staphylococcus aureus (S. aureus) (ATCC® 6538), methicillin-resistant Staphylococcus aureus (MRSA) (NCTC® 12493), Enterococcus faecalis (E. faecalis) (NCTC® 12697), E. coli (ATCC® 8739), Klebsiella pneumonia (K. pneumonia) (ATCC® 43816), Pseudomonas aeruginosa (P. aeruginosa) (ATCC® CRM 9027), Acinetobacter baumanni (A. baumanni) (BAA® 747), and Candida albicans (C. albicans) (ATCC® 10231). In this study, the strains were cultured in Mueller–Hinton broth (MHB), nutrient broth (NB), and yeast–peptone–dextrose broth (YPD-B) correspondingly at 37 °C, with shaking at 120 rpm. Each peptide was dissolved from 128 μM to 1 μM and mixed with the bacterium at 5 × 10^5 CFU/mL. In this process, bacteria with culture medium were used as the growth control group; PBS was set up as the vehicle control group; sterile culture medium was used as the blank control group; and Norfloxacin at a concentration of 2 mg/mL and amphotericin B at a concentration of 1 mg/mL were set up as the positive control group for bacteria and fungi, respectively.
(§2) After being incubated for 24 h, a Synergy HT plate reader (Bio-Tek, Shoreline, WA, USA) was used to detect the absorbance of each well in the 96-well plate at λ = 550 nm. The concentration at which no visible turbidity could be recorded was the MIC value. Beginning from the MIC value, 10 µL of solution in each clear well was dropped on the sterile agar plates. The plate was checked the next day for colony formation, and the lowest concentration at which no colony growing was recorded as an MBC value.

E. coli (ATCC 8739) = type: cell-based, Escherichia coli; settings: ATCC 8739, 24 h
Description: as §1, §2

A. baumannii (BAA 747) = type: cell-based, Acinetobacter baumanni; settings: BAA 747, 24 h
Description: as §1, §2

[1] = tested on: S. aureus (ATCC 6538) biofilm; type: cell-based, Staphylococcus aureus; settings: ATCC 6538, 24 h
Protocol: (§3) To test the anti-biofilm ability of PSTO2 and its analogues, three types of microorganisms (S. aureus ATCC® 6538, E. coli ATCC® 8739, and MRSA NCTC® 12493) were chosen. Tryptic soy broth (TSB) and Lysogeny broth (LB) were used to culture microorganisms. The peptide was dissolved in an autoclaved PBS solution and diluted into concentrations ranging from 51,200 µM to 100 µM. One µL of peptide solution of each concentration was added into a 96-well plate with 100 µL bacterium at 5 × 10^5 CFU/mL. The plate was incubated at 37 °C for 24 h, with shaking at 200 rpm. After overnight incubation, the planktonic bacteria were washed up. Then, 100 µL of methanol was used to fix the biofilms onto the bottom, and 100 µL of 0.1% crystal violet solution (Sigma-Aldrich, Gillingham, UK) was added to each well to stain the biofilms. After drying, 160 µL of acetic acid (30% in deionised water, Sigma-Aldrich, UK) was added to each well to dissolve the shaded parts. The absorbance was detected with the Synergy HT plate reader at λ = 595 nm.
(§4) For the MBEC assay, 100 µL of the bacterium of 5 × 10^5 CFU/mL was transferred into an empty 96-well plate, and the plate was incubated at 37 °C for 24 h to obtain the biofilms primarily. Then, the peptide solution from 512 µM to 1 µM was transferred into a corresponding well, followed by 24 h incubation at 37 °C, with shaking at 200 rpm. After this, the plate was handled using the identical method to the plate in the MBIC assay, and the absorbance of each well was detected with the Synergy HT plate reader at λ = 595 nm. The minimum concentration at which the peptide can eradicate the existing biofilm was recorded as the MBEC value.

[2] = tested on: E. coli (ATCC 8739) biofilm; type: cell-based, Escherichia coli; settings: ATCC 8739, 24 h
Protocol: as §3, §4

horse red blood cells = type: cell-based
Protocol: To assess the haemolytic activity of PSTO2 and its analogues, 2% fresh defibrinated horse red blood cells (TCS Biosciences Ltd., Buckingham, UK) were acquired after being washed and resuspended in sterile PBS. Each peptide was dissolved in PBS to prepare solutions with concentrations ranging from 2 µM to 1024 µM. Subsequently, 100 µL of each peptide solution was mixed with 100 µL of the red blood cell suspension. The red blood cells treated with 1% triton X-100 and sterile PBS in equivalent volumes were set up as the positive and negative control groups, respectively. Then, all the samples were incubated at 37 °C for 2 h. Thereafter, the samples were centrifuged at 900× g for 10 min. Finally, 100 µL of supernatant of each sample was transferred into a 96-well plate, and the absorbance was recorded by a Synergy HT plate reader (Bio-Tek, Shoreline, WA, USA) at a wavelength of 570. The following equation was used to calculate haemolysis activity:Haemolysis activity = (Sample absorbance − Ab)/(Ap − Ab) × 100% where Ab refers to the mean value of absorbance of the negative control (incubated with PBS only), and Ap refers to the mean absorbance value of the positive control (incubated with triton X-100).

Compound: CC[C@H](C)[C@H](NC(=O)[C@H](C)NC(=O)[C@@H](CCCCN)NC(=O)[C@@H]1CCCN1C(=O)[C@@H](NC(=O)[C@H](CC(C)C)NC(=O)[C@H](CO)NC(=O)[C@H](CC(C)C)NC(=O)[C@@H](N)Cc1ccccc1)[C@@H](C)CC)C(=O)N[C@@H](CCCCN)C(=O)N[C@@H](C)C(=O)N[C@H](C(=O)N[C@@H](CCCCN)C(=O)N[C@@H](C)C(=O)N[C@@H](CC(C)C)C(=O)N[C@@H](C)C(=O)N[C@@H](CCCCN)C(=O)N[C@H](CCCCN)C(=O)N[C@@H](CC(C)C)C(N)=O)C(C)C [SR2D10] (H-FLSLIP[dK]AIKAVKALAK[dK]L-NH2)
- MBC (MRSA (NCTC 12493)): 1/1 μM
- MBC (E. coli (ATCC 8739)): 2 µM
- MIC (E. coli (ATCC 8739)): 2 µM
- MBC (A. baumannii (BAA 747)): 16/16 μM
- MIC (A. baumannii (BAA 747)): 16/16 μM
- MBEC [1]: 32 µM
- MBIC [1]: 4 µM
- MBEC [2]: 64 µM
- MBIC [2]: 32 µM
- HC10 (horse red blood cells): 75.24

Compound: FLSLIPKAIKAVSALAKKL-NH2 [SR]
- MBC (MRSA (NCTC 12493)): 2 µM
- MIC (MRSA (NCTC 12493)): 2 µM
- MBC (E. coli (ATCC 8739)): 2 µM
- MIC (E. coli (ATCC 8739)): 2 µM
- MBC (A. baumannii (BAA 747)): 4/4 μM
- MBEC [1]: 16 µM
- MBEC [2]: 16/16 μM
- MBIC [2]: 16/16 μM
- HC10 (horse red blood cells): 12.60

Compound: FLSLIPKAIKAVKALAKKL-NH2 [SR2]
- MBC (MRSA (NCTC 12493)): 2 µM
- MIC (MRSA (NCTC 12493)): 2 µM
- MBC (E. coli (ATCC 8739)): 2 µM
- MIC (E. coli (ATCC 8739)): 2 µM
- MBC (A. baumannii (BAA 747)): 2/2 μM
- MBEC [1]: 16 µM
- MBIC [1]: 2 µM
- MBEC [2]: 16 µM
- MBIC [2]: 8 µM
- HC10 (horse red blood cells): 6.53

Compound: CC[C@H](C)[C@H](NC(=O)[C@H](C)NC(=O)[C@@H](CCCCN)NC(=O)[C@@H]1CCCN1C(=O)[C@@H](NC(=O)[C@H](CC(C)C)NC(=O)[C@H](CO)NC(=O)[C@H](CC(C)C)NC(=O)[C@@H](N)Cc1ccccc1)[C@@H](C)CC)C(=O)N[C@@H](CCCCN)C(=O)N[C@@H](C)C(=O)N[C@H](C(=O)N[C@@H](CO)C(=O)N[C@@H](C)C(=O)N[C@@H](CC(C)C)C(=O)N[C@@H](C)C(=O)N[C@@H](CCCCN)C(=O)N[C@@H](CCCCN)C(=O)N[C@@H](CC(C)C)C(N)=O)C(C)C [SRD7] (H-FLSLIP[dK]AIKAVSALAKKL-NH2)
- MBC (MRSA (NCTC 12493)): 2 µM
- MIC (MRSA (NCTC 12493)): 1 µM
- MBC (E. coli (ATCC 8739)): 2 µM
- MIC (E. coli (ATCC 8739)): 2 µM
- MBC (A. baumannii (BAA 747)): 16/16 μM
- MBEC [1]: 32 µM
- MBIC [1]: 2 µM
- MBEC [2]: 64 µM
- MBIC [2]: 32 µM
- HC10 (horse red blood cells): 74.78
